This is an account of results in BindingDB's records for doi:10.1021/jm060742o (Rheinische Friedrich-Wilhelms-Universitat Bonn, 2006).

Holding throughout (experiment): Cholinesterase Inhibition Assay
One assay deals with Cholinesterase (Homo sapiens, UniProt P06276). As for the experimental part: (§1) The cholinesterase assays were performed using colorimetric method reported by Ellman. The absorbance changed at 412 nm and was monitored with spectrophotometer. The reaction rates were compared and the percent inhibition due to the presence of test compounds was calculated. Inhibition curve was obtained for each compound. The compound concentration producing 50% of enzyme inhibition (IC50) was determined.

The target in assay [1] is Acetylcholinesterase (Tetronarce californica, UniProt P04058). As for the experimental part:
as §1

The target in assay [2] is Acetylcholinesterase (Homo sapiens, UniProt P22303). The following applies: pH 7.3; 25 °C. As for the experimental part:
as §1

Assay [3] addresses Acetylcholinesterase (Electrophorus electricus, UniProt O42275). As for the experimental part: as §1

The structures appear in SMILES notation.

Chain of Acetylcholinesterase (Electrophorus electricus, UniProt O42275) (O42275 whole entry): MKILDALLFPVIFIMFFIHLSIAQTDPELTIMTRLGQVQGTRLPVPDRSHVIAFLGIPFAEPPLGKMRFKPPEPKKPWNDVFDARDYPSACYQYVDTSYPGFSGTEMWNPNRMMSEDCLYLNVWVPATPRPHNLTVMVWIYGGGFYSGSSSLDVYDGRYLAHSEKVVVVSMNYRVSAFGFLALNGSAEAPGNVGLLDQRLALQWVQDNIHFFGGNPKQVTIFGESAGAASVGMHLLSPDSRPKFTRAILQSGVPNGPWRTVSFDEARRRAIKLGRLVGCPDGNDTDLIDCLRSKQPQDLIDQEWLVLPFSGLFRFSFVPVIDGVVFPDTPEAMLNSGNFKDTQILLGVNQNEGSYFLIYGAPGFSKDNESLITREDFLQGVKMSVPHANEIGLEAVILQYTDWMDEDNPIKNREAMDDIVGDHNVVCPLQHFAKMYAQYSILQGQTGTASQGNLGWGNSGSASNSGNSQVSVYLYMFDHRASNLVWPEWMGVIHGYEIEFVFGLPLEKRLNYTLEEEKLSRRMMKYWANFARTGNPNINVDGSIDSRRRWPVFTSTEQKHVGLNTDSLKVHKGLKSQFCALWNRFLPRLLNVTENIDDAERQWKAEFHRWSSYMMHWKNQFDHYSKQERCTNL
Chain of Acetylcholinesterase (Tetronarce californica, UniProt P04058) (P04058 whole entry): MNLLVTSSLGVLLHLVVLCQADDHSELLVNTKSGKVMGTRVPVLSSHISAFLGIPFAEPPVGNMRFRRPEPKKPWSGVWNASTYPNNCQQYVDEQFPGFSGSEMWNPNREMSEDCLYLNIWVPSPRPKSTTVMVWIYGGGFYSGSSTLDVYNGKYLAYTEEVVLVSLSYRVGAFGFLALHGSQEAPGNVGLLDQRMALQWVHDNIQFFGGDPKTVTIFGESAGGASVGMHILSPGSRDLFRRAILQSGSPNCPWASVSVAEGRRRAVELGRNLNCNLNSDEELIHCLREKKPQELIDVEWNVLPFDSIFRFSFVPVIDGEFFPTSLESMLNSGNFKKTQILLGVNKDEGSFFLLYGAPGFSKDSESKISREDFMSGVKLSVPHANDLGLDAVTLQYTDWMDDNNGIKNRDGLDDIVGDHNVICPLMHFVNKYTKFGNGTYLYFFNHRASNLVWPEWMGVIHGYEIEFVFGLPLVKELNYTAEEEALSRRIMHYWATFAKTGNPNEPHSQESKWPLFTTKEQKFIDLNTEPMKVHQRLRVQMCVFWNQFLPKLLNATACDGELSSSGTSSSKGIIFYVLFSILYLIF
Chain of Acetylcholinesterase (Homo sapiens, UniProt P22303) (P22303 whole entry): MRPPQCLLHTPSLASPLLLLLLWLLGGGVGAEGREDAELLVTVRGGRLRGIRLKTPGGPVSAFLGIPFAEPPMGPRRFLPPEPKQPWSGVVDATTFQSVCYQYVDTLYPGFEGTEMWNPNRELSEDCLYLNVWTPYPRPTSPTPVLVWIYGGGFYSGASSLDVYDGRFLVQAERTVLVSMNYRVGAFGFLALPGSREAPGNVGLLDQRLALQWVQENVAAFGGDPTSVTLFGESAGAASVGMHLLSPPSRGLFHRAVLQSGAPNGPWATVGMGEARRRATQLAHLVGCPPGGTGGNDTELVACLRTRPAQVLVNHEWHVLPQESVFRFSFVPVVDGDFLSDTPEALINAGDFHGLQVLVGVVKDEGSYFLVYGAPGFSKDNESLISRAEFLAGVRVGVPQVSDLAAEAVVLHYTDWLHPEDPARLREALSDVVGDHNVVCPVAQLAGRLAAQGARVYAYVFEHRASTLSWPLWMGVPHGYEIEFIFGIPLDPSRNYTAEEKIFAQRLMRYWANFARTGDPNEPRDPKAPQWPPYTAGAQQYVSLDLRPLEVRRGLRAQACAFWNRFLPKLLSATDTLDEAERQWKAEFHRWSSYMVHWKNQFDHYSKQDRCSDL
Chain of Cholinesterase (P06276 whole entry): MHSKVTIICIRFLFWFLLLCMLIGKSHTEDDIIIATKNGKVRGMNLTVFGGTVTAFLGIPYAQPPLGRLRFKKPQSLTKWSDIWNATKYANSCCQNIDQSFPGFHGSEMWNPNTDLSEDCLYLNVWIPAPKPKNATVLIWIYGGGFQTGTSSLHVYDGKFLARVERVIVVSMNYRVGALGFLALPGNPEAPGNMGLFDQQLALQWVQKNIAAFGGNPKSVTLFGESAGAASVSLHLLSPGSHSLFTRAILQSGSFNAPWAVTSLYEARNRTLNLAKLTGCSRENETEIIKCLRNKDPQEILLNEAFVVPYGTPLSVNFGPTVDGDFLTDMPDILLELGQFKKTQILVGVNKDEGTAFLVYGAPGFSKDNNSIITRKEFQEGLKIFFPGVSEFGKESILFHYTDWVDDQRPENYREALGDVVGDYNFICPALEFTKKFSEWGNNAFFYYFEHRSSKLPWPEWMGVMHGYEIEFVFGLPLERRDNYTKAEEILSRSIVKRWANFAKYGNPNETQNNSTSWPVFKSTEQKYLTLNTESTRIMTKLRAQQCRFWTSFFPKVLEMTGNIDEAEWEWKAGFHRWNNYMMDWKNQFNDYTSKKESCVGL

In general, IC50 refers to the point on the concentration scale where inhibition reaches its midpoint. A low value points to greater potency. With `COc1cc(C(=O)NCCCCCCCCC(=O)NNc2c3c(nc4ccccc24)CCCC3)cc(OC)c1OC` [3,4,5-Trimethoxy-N-(9-oxo-9-(2-(1,2,3,4-tetrahydroacridin-9-yl)hydrazino)nonyl)-benzamide], the concentration for half-maximal inhibition (IC50) is 1.38 nM at Cholinesterase, 5.99 nM at Acetylcholinesterase [1], 5.08 nM at Acetylcholinesterase [2] and 2.73 nM against Acetylcholinesterase [3].

A word on the Ki: it is a dissociation constant, usually derived from enzyme kinetics or from competition with a known ligand. Lower therefore signals higher affinity. In turn, `COc1cc(C(=O)NCCCCCCCC(=O)NNc2c3c(nc4ccccc24)CCCC3)cc(OC)c1OC` [3,4,5-trimethoxy-N-[7-(N'-1,2,3,4-tetrahydroacridin-9-ylhydrazinecarbonyl)heptyl]benzamide] yielded a Ki on Acetylcholinesterase [3] of 3.23 nM.
